In ChEMBL document CHEMBL1137966, “Thrombin inhibitors built on an azaphenylalanine scaffold” (Bioorg Med Chem Lett, 2004):

How the values were obtained:
Coagulation factor X = Coagulation factor X (Homo sapiens, UniProt P00742); test: In vitro inhibition of Coagulation factor X
Serine protease 1 = Serine protease 1 (Homo sapiens, UniProt P07477); test: In vitro inhibition of trypsin
Prothrombin = Prothrombin (Homo sapiens, UniProt P00734)
Description: In vitro inhibition of human alpha-thrombin

Serine protease 1, sequence (P07477 whole entry): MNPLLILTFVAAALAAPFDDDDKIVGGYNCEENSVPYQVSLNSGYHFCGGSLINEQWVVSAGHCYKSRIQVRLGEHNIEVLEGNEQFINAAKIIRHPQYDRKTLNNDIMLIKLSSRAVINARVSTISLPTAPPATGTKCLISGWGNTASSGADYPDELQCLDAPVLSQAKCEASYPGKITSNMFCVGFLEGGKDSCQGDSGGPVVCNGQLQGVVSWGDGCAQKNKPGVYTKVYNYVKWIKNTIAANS
Coagulation factor X, sequence (P00742 41-179 limits assumed): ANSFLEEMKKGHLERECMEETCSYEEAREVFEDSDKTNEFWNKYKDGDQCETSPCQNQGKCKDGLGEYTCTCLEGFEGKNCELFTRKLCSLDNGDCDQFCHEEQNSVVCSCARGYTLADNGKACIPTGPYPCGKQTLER
Coagulation factor X, sequence (P00742 235-488 limits assumed): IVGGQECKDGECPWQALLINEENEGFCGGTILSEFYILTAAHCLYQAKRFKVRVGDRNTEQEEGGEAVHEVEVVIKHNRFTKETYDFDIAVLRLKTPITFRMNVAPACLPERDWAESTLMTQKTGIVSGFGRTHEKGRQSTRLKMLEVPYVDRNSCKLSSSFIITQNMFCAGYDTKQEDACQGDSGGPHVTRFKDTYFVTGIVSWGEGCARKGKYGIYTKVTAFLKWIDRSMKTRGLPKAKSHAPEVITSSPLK

| SMILES | Ki (Coagulation factor X) [µM] | Ki (Serine protease 1) [µM] | Ki (Prothrombin) [µM] |
| --- | --- | --- | --- |
| N/C(=N\O)c1ccc(CN(NS(=O)(=O)c2ccc3ccccc3c2)C(=O)N2CCCCC2)cc1 | > 75 | > 68 |  |
| CC1CCN(C(=O)N(Cc2cccc(C(=N)NO)c2)NS(=O)(=O)c2ccc3ccccc3c2)CC1 | > 75 | > 68 |  |
| COc1ccc2cc(S(=O)(=O)NN(Cc3ccc(C(=N)N)cc3)C(=O)N3CCC(C)CC3)ccc2c1 | > 75 | 18 | 0.045 |
| N/C(=N\O)c1ccc(CN(NS(=O)(=O)c2ccc(-c3ccccc3)cc2)C(=O)N2CCCCCC2)cc1 |  | > 400 | 1.6 |
| CC1CCCCN1C(=O)N(Cc1ccc(C(=N)N)cc1)NS(=O)(=O)c1ccc2ccccc2c1 (stereo unspecified) | 53 | 26 | 0.085 |
| N/C(=N\O)c1cccc(CN(NS(=O)(=O)c2ccc3ccccc3c2)C(=O)N2CCCCCC2)c1 | > 75 | 32 |  |
| N=C(N)c1ccc(CN(NS(=O)(=O)c2ccc(-c3ccccc3)cc2)C(=O)N2CCCCCC2)cc1 |  | 23 | 0.15 |
| COc1ccc2cc(S(=O)(=O)NN(Cc3cccc(C(=N)NO)c3)C(=O)N3CCCCC3C)ccc2c1 (stereo unspecified) | 111 | 47 | 4.2 |
| CC1CCCCN1C(=O)N(Cc1cccc(C(=N)NO)c1)NS(=O)(=O)c1ccc2ccccc2c1 (stereo unspecified) | 5.4 | 67 |  |
| COc1ccc2cc(S(=O)(=O)NN(Cc3ccc(C(=N)NO)cc3)C(=O)N3CCC(C)CC3)ccc2c1 | > 75 | > 68 | 0.38 |
| CC1CCN(C(=O)N(Cc2ccc(C(=N)NO)cc2)NS(=O)(=O)c2ccc3ccccc3c2)CC1 | > 75 | > 68 | 0.77 |
| CC1CCCCN1C(=O)N(Cc1ccc(C(=N)NO)cc1)NS(=O)(=O)c1ccc2ccccc2c1 (stereo unspecified) | > 75 | 45 | 0.43 |

The next compounds have a lower Ki (Serine protease 1) than those just listed; values first:

| Ki (Coagulation factor X) [µM] | Ki (Serine protease 1) [µM] | Ki (Prothrombin) [µM] | SMILES |
| --- | --- | --- | --- |
| 103 | 17 |  | COc1ccc2cc(S(=O)(=O)NN(Cc3cccc(C(=N)NO)c3)C(=O)N3CCCCCC3)ccc2c1 |
| > 75 | 13 | 0.21 | N/C(=N\O)c1ccc(CN(NS(=O)(=O)c2ccc3ccccc3c2)C(=O)N2CCCCCC2)cc1 |
| 66 | 13 | 0.095 | N=C(N)c1ccc(CN(NS(=O)(=O)c2ccc3ccccc3c2)C(=O)N2CCCCC2)cc1 |
| 69 | 10 |  | N=C(N)c1ccc(CN(NS(=O)(=O)c2ccc3ccccc3c2)C(=O)N2CCCCCC2)cc1 |
| 3.9 | 0.14 |  | N=C(N)c1cccc(CN(NS(=O)(=O)c2ccc3ccccc3c2)C(=O)N2CCCCCC2)c1 |
| 5.3 | 0.11 |  | CC1CCN(C(=O)N(Cc2cccc(C(=N)N)c2)NS(=O)(=O)c2ccc3ccccc3c2)CC1 |
| 3 | 0.053 |  | COc1ccc2cc(S(=O)(=O)NN(Cc3cccc(C(=N)N)c3)C(=O)N3CCCCCC3)ccc2c1 |
